Measured values: patent US11807625B2, “Capsid inhibitors for the prevention of HIV” (Gilead Sciences, Inc., priority 2019, dated 2023)

Assay: PK of compound of Formula (Ia) after single subcutaneous dose of solution formulations in Wistar Han rats
Format: in vivo
Settings: male, Wistar Han, rat, plasma, sc, 50 mg/kg, SC 50 mg/kg
Description: Formulations containing the compound of Formula (Ia), or a pharmaceutically acceptable salt thereof, were prepared as solutions and optionally administered subcutaneously or intramuscularly to rats, rabbits, and/or dogs.
(§1) A solution of about 400 mg/mL of the compound of Formula (Ia) having 19.14 w/w % water, 40.66 w/w % PEG 300, 35.20 w/w % of a sodium salt of a compound of Formula (Ia), and 5.00% ethanol was prepared. The solution was administered subcutaneously to male Wistar Han rats at a dose level of about 50 mg/kg and dose volume of 0.125 mL/kg and the pharmacokinetic (PK) profile was determined.
as §1, with “500” for “400”, “16.64” for “19.14”, “35.36” for “40.66”, “43.00” for “35.20”, “0.1” for “0.125”
(§2) A solution of about 400 mg/mL of the compound of Formula (Ia) having 17.00 w/w % water, 36.40 w/w % PEG 300, 35.20 w/w % of a sodium salt of a compound of Formula (Ia), 5.00 w/w % ethanol, and 6.40 w/w % poloxamer 188 was prepared. The solution was administered subcutaneously to male beagle dogs at a dose level of about 12 mg/kg and male Wistar Han rats at a dose level of about 50 mg/kg. The pharmacokinetic profiles were determined, and the results for dogs are summarized in Table and Table, while the results for rats are summarized in Table and Table below.
as §2, with “500” for “400”, “14.06” for “17.00”, “30.12” for “36.40”
A solution of about 300 mg/mL of the compound of Formula (Ia) having 23.33 w/w % water, 48.99 w/w % PEG 300, 26.47 w/w % of a sodium salt of a compound of Formula (Ia), and 1.21 w/w % poloxamer 188 was prepared. The solution was administered subcutaneously to male beagle dogs at a dose level of about 6 mg/kg and male Wistar Han rats at a dose level of about 50 mg/kg. The pharmacokinetic profiles were determined, and the results for dogs are summarized in Table and Table, while the results for rats are summarized in Table and Table below.
as §2, with “18.80” for “17.00”, “40.25” for “36.40”, “34.38” for “35.20”, “1.57” for “6.40”
as §2, with “500” for “400”, “16.29” for “17.00”, “34.88” for “36.40”, “41.92” for “35.20”, “1.91” for “6.40”
A solution of about 400 mg/mL of the compound of Formula (Ia) having 20.90 w/w % water, 44.72 w/w % PEG 300, and 34.38 w/w % of a sodium salt of a compound of Formula (Ia) was prepared. […]

[1] = mean, n = 3 rats, solution R, 400 mg/mL
[2] = mean, n = 3 rats, solution S, 500 mg/mL
[3] = mean, n = 3 rats, solution V, 300 mg/mL
[4] = mean, n = 5 rats, solution T, 400 mg/mL
[5] = mean, n = 5 rats, solution U, 500 mg/mL
[6] = individual rats, solution R, 400 mg/mL
[7] = individual rats, solution S, 500 mg/mL
[8] = individual rats, solution V, 300 mg/mL
[9] = mean (rat #1 NS), solution T, 400 mg/mL
[10] = Wistar Han rats, 400 mg/mL solution AA (6.25% poloxamer 188), Mean n = 4
[11] = Wistar Han rats, 400 mg/mL solution AA (6.25% poloxamer 188), animals #1-#4

- concentration at 672 h [1]: 339 nM
- concentration at 672 h [2]: 296 nM
- concentration at 672 h [3]: 308 nM
- concentration at 672 h [4]: 298 nM
- concentration at 672 h [5]: 296 nM
- concentration at 840 h [6]: 295 nM
- concentration at 840 h [7]: 429 nM
- concentration at 840 h [8]: 285 nM
- concentration at 840 h [1]: 350 nM
- concentration at 840 h [2]: 300 nM
- concentration at 840 h [3]: 308 nM
- concentration at 840 h [4]: 215 nM
- concentration at 840 h [5]: 261 nM
- concentration at 1008 h [6]: 303 nM
- concentration at 1008 h [1]: 354 nM
- concentration at 1008 h [2]: 300 nM
- concentration at 1008 h [3]: 258 nM
- concentration at 1008 h [4]: 207 nM
- concentration at 1008 h [5]: 284 nM
- concentration at 1334 h [6]: 296 nM
- concentration at 1334 h [7]: 398 nM
- concentration at 1334 h [1]: 328 nM
- concentration at 1334 h [2]: 300 nM
- concentration at 1344 h [8]: 272 nM
- concentration at 1344 h [3]: 301 nM
- concentration at 1344 h [4]: 159 nM
- concentration at 1344 h [5]: 226 nM
- concentration at 1680 h [6]: 271 nM
- concentration at 1680 h [7]: 342 nM
- concentration at 1680 h [8]: 221 nM
- concentration at 1680 h [9]: 145 nM
- concentration at 1680 h [1]: 277 nM
- concentration at 1680 h [2]: 249 nM
- concentration at 1680 h [3]: 250 nM
- concentration at 1680 h [5]: 198 nM
- concentration at 2016 h [6]: 199 nM
- concentration at 2016 h [7]: 221 nM
- concentration at 2016 h [8]: 138 nM
- concentration at 2016 h [9]: 140 nM
- concentration at 2016 h [1]: 202 nM
- concentration at 2016 h [2]: 171 nM
- concentration at 2016 h [3]: 181 nM
- concentration at 2016 h [5]: 174 nM
- concentration at 2352 h [6]: 183 nM
- concentration at 2352 h [7]: 231 nM
- concentration at 2352 h [8]: 122 nM
- concentration at 2352 h [9]: 117 nM
- concentration at 2352 h [1]: 182 nM
- concentration at 2352 h [2]: 173 nM
- concentration at 2352 h [3]: 165 nM
- concentration at 2352 h [5]: 167 nM
- concentration at 2688 h [6]: 168 nM
- concentration at 2688 h [7]: 171 nM
- concentration at 2688 h [8]: 113 nM
- concentration at 2688 h [9]: 162 nM
- concentration at 2688 h [1]: 154 nM
- concentration at 2688 h [2]: 148 nM
- concentration at 2688 h [3]: 141 nM
- concentration at 2688 h [5]: 108 nM
- concentration at 3024 h [6]: 136 nM
- concentration at 3024 h [7]: 125 nM
- concentration at 3024 h [8]: 81.4 nM
- concentration at 3024 h [9]: 131 nM
- concentration at 3024 h [1]: 122 nM
- concentration at 3024 h [2]: 108 nM
- concentration at 3024 h [3]: 99.1 nM
- concentration at 3024 h [5]: 102 nM
- concentration at 3360 h [6]: 132 nM
- concentration at 3360 h [7]: 135 nM
- concentration at 3360 h [8]: 81.1 nM
- concentration at 3360 h [9]: 117 nM
- concentration at 3360 h [1]: 111 nM
- concentration at 3360 h [2]: 110 nM
- concentration at 3360 h [3]: 77.4 nM
- concentration at 3360 h [5]: 88 nM
- concentration at 3696 h [7]: 102 nM
- concentration at 3696 h [8]: 72.2 nM
- concentration at 3696 h [9]: 73.7 nM
- concentration at 3696 h [1]: 94.8 nM
- concentration at 3696 h [2]: 92 nM
- concentration at 3696 h [3]: 68.4 nM
- concentration at 3696 h [5]: 70.5 nM
- concentration at 4032 h [7]: 118 nM
- concentration at 4032 h [8]: 56.6 nM
- concentration at 4032 h [9]: 71.5 nM
- concentration at 4032 h [1]: 102 nM
- concentration at 4032 h [2]: 110 nM
- concentration at 4032 h [3]: 52.3 nM
- concentration at 4032 h [5]: 65.7 nM
- concentration at 4704 h [7]: 62.9 nM
- concentration at 4704 h [8]: 35.9 nM
- concentration at 4704 h [9]: 44.3 nM
- concentration at 4704 h [1]: 69 nM
- concentration at 4704 h [2]: 71.5 nM
- concentration at 4704 h [3]: 30.2 nM
- concentration at 4704 h [5]: 43.1 nM
- concentration at 5376 h [9]: 34.4 nM
- concentration at 5376 h [1]: 58 nM
- concentration at 5376 h [2]: 58.8 nM
- concentration at 5376 h [5]: 38.9 nM
- concentration at 6048 h [9]: 29 nM
- concentration at 6048 h [1]: 30.2 nM
- concentration at 6048 h [2]: 45 nM
- concentration at 6048 h [5]: 36.2 nM
- concentration at 6720 h [9]: 21.5 nM
- concentration at 6720 h [1]: 26.3 nM
- concentration at 6720 h [2]: 37 nM
- concentration at 6720 h [5]: 26.5 nM
- concentration at 7392 h [1]: 16.5 nM
- concentration at 7392 h [2]: 29.4 nM
- concentration at 8064 h [1]: 12.3 nM
- concentration at 8064 h [2]: 24.8 nM
- concentration at 1 h [10]: 35.9 nM
- concentration at 1 h [11]: 29 nM
- concentration at 3 h [10]: 69.5 nM
- concentration at 3 h [11]: 67.9 nM
- concentration at 8 h [10]: 122 nM
- concentration at 8 h [11]: 109 nM
- concentration at 24 h [10]: 233 nM
- concentration at 24 h [11]: 259 nM
- concentration at 48 h [10]: 251 nM
- concentration at 48 h [11]: 272 nM
- concentration at 72 h [10]: 227 nM
- concentration at 72 h [11]: 231 nM
- concentration at 96 h [10]: 201 nM
- concentration at 96 h [11]: 211 nM
- concentration at 168 h (Wistar Han rats, 400 mg/mL solution AA (6.25% poloxamer 188), 168 h, Mean n = 4): 141 nM
- concentration at 336 h (Wistar Han rats, 400 mg/mL solution AA (6.25% poloxamer 188), 336 h, Mean n = 4): 130 nM
- concentration at 504 h (Wistar Han rats, 400 mg/mL solution AA (6.25% poloxamer 188), 504 h, Mean n = 4): 131 nM
- concentration at 672 h [10]: 117 nM
- concentration at 672 h [11]: 130 nM
- concentration at 840 h [10]: 118 nM
- concentration at 840 h [11]: 170 nM
- concentration at 1008 h [10]: 103 nM
- concentration at 1008 h [11]: 134 nM
- concentration at 1344 h [10]: 77.1 nM
- concentration at 1344 h [11]: 93 nM
- concentration at 1680 h [10]: 63.8 nM
SMILES: CC(C)(C#Cc1ccc(-c2ccc(Cl)c3c(NS(C)(=O)=O)nn(CC(F)(F)F)c23)c([C@H](Cc2cc(F)cc(F)c2)NC(=O)Cn2nc(C(F)(F)F)c3c2C(F)(F)[C@@H]2C[C@H]32)n1)S(C)(=O)=O [compound of Formula (Ia)]
